Reference: ChEMBL document CHEMBL1127184, “Preparation of the enantiomers of the analgesic E-3710” (1993)

Legend:
Type in all cases: functional
Mus musculus [1] = experiment: Analgesic activity by writhing test in mice after intraveneous administration; settings: iv
Mus musculus [2] = experiment: Analgesic activity by writhing test in mice after peroral administration; settings: po
Mus musculus [3] = experiment: Analgesic activity by writhing test in mice after subcutaneous administration; settings: sc

SMILES | ED50 (Mus musculus [1]) | ED50 (Mus musculus [2]) | ED50 (Mus musculus [3])
CN(C)CCO[C@@H](c1ccccc1)c1ccnn1C | 28 mg/kg | 67 mg/kg | 127 mg/kg
CN(C)CCO[C@H](c1ccccc1)c1ccnn1C | 13 mg/kg | 37 mg/kg | 21 mg/kg
CN(C)CCOC(c1ccccc1)c1ccnn1C (racemic) [CIZOLIRTINE] | 16 mg/kg | 56 mg/kg | 70 mg/kg
O=C([O-])Cc1ccccc1Nc1c(Cl)cccc1Cl.[Na+] [DICLOFENAC SODIUM] | – | 87 mg/kg | –
